Among the data in patent publication US9744175B2, “Compositions of combinations of non-covalent DNA binding agents and anti-cancer and/or anti-inflammatory agents and their use in disease treatment” (INDUS PHARMACEUTICALS, INC., priority 2012, dated 2017) are IC50 values, retold here.

As a reminder, the IC50 is the point on the concentration scale where inhibition reaches its midpoint.

For the assay, the system named is yeast rad57 mutation. Description: Alamar Blue cell survival assay in yeast cells. The assay is classed as cell-based. Here is the method:
The cells are diluted 100-fold in yeast complete medium. 100 μL of diluted cells are seeded in 96 well plates with or without a non-covalent DNA binding compound and incubated for 24 hours at 30° C. The following day, an equal volume of yeast complete medium containing 1% alamar blue is added and incubated at 30° C. for two hours. Fluorescence intensity is measured in a fluorescent reader to calculate the inhibition effect of non-covalent DNA binding agents in mutant and wild type yeast cells.
Yeast cells that carry mutations in different genes involved in homologous recombination (rad 50, rad51, rad52, and rad57) and nucleotide excision/double strand repair (rad1) are grown to stationary culture overnight.

In the case of `COc1cc2c(cc1OCCCC(=O)Nc1ccc3ccc4cccc5ccc1c3c45)N=C[C@@H]1CCCN1C2=O` [NSC 726260], the IC50 was found to be 300 nM.
